From US12668589B2, “N-formamidopyrazoline derivative as P2X3 receptor antagonist and use thereof” (HANGZHOU WESTAN PHARMACEUTICAL TECHNOLOGY CO., LTD, priority 2020, dated 2026) come the findings set out here.

In general, clearance refers to the rate of elimination divided by the concentration. Lower therefore signals a low capacity for elimination. For orientation: half-life means how long it takes for the measured level to halve. A high value points to slow loss. A word on the Tmax: it is the time at which the peak concentration occurs. Broadly, the bioavailability is dose-corrected exposure relative to a reference, in per cent. A high value points to good availability.

The nature of data set [1]: In-vivo pharmacokinetic experiments on rats. On the set-up: species or system SD rats. The note with it: for clearance / half-life / Cmax / Vd / Tmax / bioavailability: both sexes, SD, plasma; for Vd: read-out: Vss. As to the method:
SD rats were used, half male and half female, which were administered with compounds by intravenous injection (3 mg/kg), intraperitoneal injection (10 mg/kg) or gavage (30 mg/kg) at different doses. At different time points after administration, blood was collected into EDTA blood sample collection tubes. Plasma was separated by centrifugation and stored at −20° C. pending analysis.
Standard curve and quality control sample preparation and processing: a compound stock solution was taken and diluted with 50% methanol water to make standard working solutions containing each compound concentration of 20 to 10,000 ng/mL, and 60, 600, 6,000 ng/mL quality control working solutions. 47.5 μL of blank rat plasma was taken, respectively, in which 2.50 μL of the standard curve working solutions and quality control working solutions were added to prepare standard curve samples with each compound concentration of 1.00 to 500.00 ng/mL and quality control samples with concentrations of 3.00, 30.00 and 300.00 ng/mL. 200 μL of acetonitrile (containing 5 ng/mL internal standard verapamil) was added into each sample. After vortex oscillation for 3 minutes, centrifuging was conducted for 15 minutes at 20,000 rcf at 4° C. Supernatants were taken for LC-MS/MS analysis.
Compound blood sample processing: 5 μL of plasma samples were taken. 45 μL of Blank rat plasma was added. 200 μL of Acetonitrile (containing 5 ng/mL internal standard verapamil) was added. After vortex oscillation for 3 minutes, centrifuging was conducted for 15 minutes at 20,000 rcf at 4° C. Supernatants were taken for LC-MS/MS analysis.

The target in data set [2] is T1, human P2X3 (Homo sapiens, UniProt P56373).
T1 sequence (P56373 1-397): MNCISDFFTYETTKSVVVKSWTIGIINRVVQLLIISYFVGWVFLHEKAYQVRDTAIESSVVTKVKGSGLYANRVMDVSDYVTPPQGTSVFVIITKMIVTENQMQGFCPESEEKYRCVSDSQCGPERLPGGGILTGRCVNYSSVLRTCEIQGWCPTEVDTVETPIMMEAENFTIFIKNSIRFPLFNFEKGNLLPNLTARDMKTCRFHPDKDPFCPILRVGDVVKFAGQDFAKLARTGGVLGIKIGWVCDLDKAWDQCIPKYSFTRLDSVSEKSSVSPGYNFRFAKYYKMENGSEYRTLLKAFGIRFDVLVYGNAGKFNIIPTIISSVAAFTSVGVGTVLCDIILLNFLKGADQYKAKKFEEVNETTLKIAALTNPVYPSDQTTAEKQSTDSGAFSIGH
The experiment in a line: cell-based.
Method: An HEK293 cell line was used as cells. HEK293 cells were placed in a 37° C. incubator with 5% CO2 for culture. Passage was conducted when the cells grew to a density of 80% to 90%. A culture medium in an original 60 mm culture dish was discarded. After the cells were washed 3 times with a sterilized PBS solution, and the solution was blotted up. […] After the trypsin was blotted up, 3 mL of a cell culture medium was added to resuspend the cells. 0.5 mL of a resuspension solution was taken to be added into a new culture dish, and an total culture solution was supplemented to 5 mL. The culture dish was gently shaken to distribute the cells evenly, and then placed in a 37° C. incubator with 5% CO2 for culture.
First, treated slides were spread in a small 35 mm culture dish. 100 μL of resuspended cells were added, and then a total amount of a culture medium was supplemented to 2 mL. Target genes were transferred into the HEK293 cell line by adopting a calcium transfection method. Small dishes to be transfected were subjected to medium change 1 hour before transfection. 2 mL of a fresh cell culture solution was added. A 1.5 mL EP tube was taken, 200 μL of a 0.25 M CaCl2) solution was added, and 3 μg of plasmids to be transfected were added, and even mixing was conducted to form a DNA-CaCl2 solution. […] A pipette tip was used for mixing while adding. After adding all, gentle blowing and beating were conducted 8 to 10 times. After still standing for 5 minutes, they were added into small dishes. The small dishes were shaken slightly to mix the solution evenly, and the placed in a cell incubator. Culture mediums were replaced after 8 to 10 hours. Electrophysiological experiments were performed 24 to 48 hours after transfection.
Electrophysiological recording electrodes were obtained by two-step pulling by using an electrode puller (PP-10, Narishige). After an internal solution is injected into the electrodes, a water inlet resistance is 3 to 5 MΩ. During the experiment, a high potassium salt internal solution containing nystatin (K2SO4 of 75 mM, KCl of 120 mM, MgSO4 of 5 mM, HEPES of 10 mM, adjusting pH to 7.2 with Tris-base, and used after filtration) was used as an electrode internal solution. After the cells were sealed by the electrodes, there was no need to further break cell membranes in a sucked manner, but the cell membranes were bored through the perforation of the nystatin to the cell membranes, to form a hole channel. […] A clamping voltage was −60 mV, a sampling frequency was 10 kHz, and filtering was conducted at 2 kHz.
A working concentration of a P2X3 receptor agonist ATP was 1 μM, and an interval time between two times of ATP administrations was 10 minutes.

For data set [3], the target named is T2, human P2X4 (Homo sapiens, UniProt Q99571).
T2 construct: expressed in transfected cells; host or cells: HEK293
T2 sequence (Q99571 1-388): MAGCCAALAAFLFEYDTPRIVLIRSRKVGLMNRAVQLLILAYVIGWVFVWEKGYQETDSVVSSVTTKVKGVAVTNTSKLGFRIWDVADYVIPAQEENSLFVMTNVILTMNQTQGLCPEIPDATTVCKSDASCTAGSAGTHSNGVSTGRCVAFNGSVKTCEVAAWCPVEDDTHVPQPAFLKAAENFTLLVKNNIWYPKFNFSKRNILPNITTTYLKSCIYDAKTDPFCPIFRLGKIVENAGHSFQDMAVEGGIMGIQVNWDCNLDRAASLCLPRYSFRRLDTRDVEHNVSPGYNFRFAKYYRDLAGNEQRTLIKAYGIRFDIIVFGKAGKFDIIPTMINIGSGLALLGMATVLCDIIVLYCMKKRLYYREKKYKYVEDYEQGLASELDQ
The experiment in a line: Inhibitory activity against human P2X4 (electrophysiological method). It is filed as cell-based. To be noted: read-out: hP2X4 (IC50).

Data set [4] concerns the target T3, human P2X2/3 (Homo sapiens, UniProt P56373+Q9UBL9).
T3 construct: expressed in transfected cells; host or cells: HEK293
T3 sequence (P56373 1-397): T1 sequence (P56373 1-397)
T3 sequence (Q9UBL9 1-471): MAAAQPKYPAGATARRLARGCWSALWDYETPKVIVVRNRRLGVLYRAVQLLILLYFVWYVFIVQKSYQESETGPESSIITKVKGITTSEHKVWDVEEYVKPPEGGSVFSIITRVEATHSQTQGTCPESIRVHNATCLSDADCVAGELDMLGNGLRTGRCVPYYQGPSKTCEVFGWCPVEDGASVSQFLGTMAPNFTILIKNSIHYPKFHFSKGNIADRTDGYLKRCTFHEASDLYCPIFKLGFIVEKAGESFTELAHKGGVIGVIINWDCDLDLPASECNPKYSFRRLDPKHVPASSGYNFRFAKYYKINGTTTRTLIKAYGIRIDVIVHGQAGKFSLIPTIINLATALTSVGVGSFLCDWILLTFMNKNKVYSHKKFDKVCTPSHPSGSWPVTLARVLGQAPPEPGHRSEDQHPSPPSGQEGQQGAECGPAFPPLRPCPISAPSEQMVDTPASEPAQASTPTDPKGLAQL
The experiment in a line: Inhibitory activity against human P2X2/3 (electrophysiological method). Type of data set: cell-based. The note with it: read-out: hP2X2/3 (IC50).

[5] abbreviates: iv, Rat PK i.v 3 mg/kg, read-out: Cmax/Co.
The mark [6] stands for this setting: po, Rat PK p.o 30 mg/kg, read-out: Cmax.

Where two headings read alike, the source gives them in different places.

For the compound `CCOC(=O)N(C)[C@H]1CN(C(=O)N[C@H](C)c2cnc(C(F)(F)F)nc2)N=C1c1ccc(C)cc1` [Compound 4, (S)-4-(N-methyl-N-ethoxycarbonylamino)-3-(4-methylphenyl)-N-((R)-1-(2-(trifluoromethyl)pyrimidin-5-yl)ethyl)-4,5-dihydro-1H-pyrazol-1-carboxamide], the “ACU” value in data set [1] (Rat PK i.v 3 mg/kg) came to 427.84 kg·ng·h/mL/mg. In addition, the “ACU” value in data set [1] (Rat PK p.o 30 mg/kg) turned out to be 367.68 kg·ng·h/mL/mg. For the same compound, in data set [1] (iv, Rat PK i.v 3 mg/kg), the clearance was 39.2 mL/min/kg, the half-life is 0.6 h and the Vd amounted to 2.05 L/kg. The Cmax in data set [1] (setting [5]) was 1750 ng/mL. In data set [1] (po, Rat PK p.o 30 mg/kg), the Tmax came to 1.8 h, the bioavailability was determined as 86% and the half-life was 2.23 h. Moreover, in data set [1] (setting [6]), the Cmax was 4950 ng/mL.

In the case of `Cc1ccc(C2=NN(C(=O)N[C@H](C)c3ccc(C(F)(F)F)nc3)C[C@@H]2N2CCOC2=O)cc1` [Compound 22], the IC50 was 0.056 µM in data set [2], above 20 µM in data set [3] and 2.42 µM in data set [4]. Further, the “ACU” value came out at 275.63 kg·ng·h/mL/mg in data set [1] (Rat PK i.v 3 mg/kg) and 766 kg·ng·h/mL/mg in data set [1] (Rat PK p.o 30 mg/kg). The same compound had a clearance in data set [1] (iv, Rat PK i.v 3 mg/kg) of 26.5 mL/min/kg. For the same compound, the half-life is 1.31 h in data set [1] (iv, Rat PK i.v 3 mg/kg) and 2.71 h in data set [1] (po, Rat PK p.o 30 mg/kg). In addition, the Cmax in data set [1] (setting [5]) is 2210 ng/mL; in data set [1] (setting [6]), 1450 ng/mL. In addition, in data set [1] (iv, Rat PK i.v 3 mg/kg), the Vd worked out at 2.8 L/kg. Besides, the Tmax in data set [1] (po, Rat PK p.o 30 mg/kg) was 0.92 h. The compound also displayed a bioavailability in data set [1] (po, Rat PK p.o 30 mg/kg) of 36%.
